Data published in publication PMC8205226, “HIV-1 Integrase Inhibitors with Modifications That Affect Their Potencies against Drug Resistant Integrase Mutants” (ACS Infectious Diseases, 2021).
Like-named read-outs stand apart in the source and are kept apart here.

Columns and labels:
Assay type in all cases: cell-based
HIV-1 IN mutant Y143C = assay: single-round infectivity assay, Y143C IN mutant
Experimental: (§1) Figure 4 Mutations in the β5-α3 loop affect the antiviral potencies of the new compounds. The EC50 values were determined using a vector that carries the IN mutant in a single round infection assay. […] Error bars represent the standard deviations of independent experiments, n = 4, performed in triplicate.
(§2) WT and mutant HIV-1 viral vectors were used in single-round infectivity assays to determine the antiviral potencies (EC50 values) of the compounds and the effects of the mutants on the EC50 values as previously described.[30],[54] Single round infectivity measurements were determined as done previously.[38]
(§3) The vector pNLNgoMIVR-ΔENV.LUC has been described previously.[26] To produce the new IN mutants used in this study, the IN open reading frame was removed from pNLNgoMIVR-ΔENV.LUC by digestion with KpnI and SalI, and the resulting fragment was inserted between the KpnI and SalI sites of pBluescript KS+. Using that construct as the wild-type template, we prepared the following HIV-1 IN mutants using the QuikChange II XL site directed mutagenesis kit (Agilent Technologies, Santa Clara, CA) protocol: N117A, N117H, P142A, P142H, P142S, Y143C, Y143H, S230R, R231G, and R231K. The following sense oligonucleotides were used with matching cognate antisense oligonucleotides (not shown) (Integrated DNA Technologies, Coralville, IA) in the mutagenesis: N117A, 5′-[…]-3′; N117H, 5′-[…]-3′; P142A, 5′-[…]-3′; P142H, 5′-[…]-3′; P142S, 5′-[…]-3′; Y143C, 5′- […]-3′; Y143H, 5′-[…]-3′; S230R, 5′- […]-3′; R231G, 5′-[…]-3′; R231K, 5′-[…]-3′.

HIV-1 IN mutant R231G = assay: single-round infectivity assay, R231G IN mutant
Experimental: (§4) Figure 5 Antiviral potencies of the new compounds against IN with mutations in the […]. The EC50 values were determined using a vector that carries the IN mutant in a single round infection assay. […] Error bars represent the standard deviations of independent experiments, n = 4, performed in triplicate.
as §2, §3

HIV-1 IN mutant N155H = assay: single-round infectivity assay, N155H IN mutant
Experimental: (§5) Figure 2 Antiviral activities of the new compounds against RAL-resistant mutants. The EC50 values were determined using a vector that carries WT HIV-1 IN and the RAL-resistant mutants in a single round infection assay. […] Error bars represent the standard deviations of independent experiments, n = 4, performed in triplicate. The graph has a maximum value of 550 nM.
as §2, §3

HIV-1 IN mutant P142S = assay: single-round infectivity assay, P142S IN mutant
Experimental: as §1, §2, §3

HIV-1 IN mutant R231K = assay: single-round infectivity assay, R231K IN mutant
Experimental: as §4, §2, §3

HIV-1 IN mutant Y143R = assay: single-round infectivity assay, Y143R IN mutant
Experimental: as §5, §2, §3

HIV-1 IN mutant G118R = assay: single-round infectivity assay, G118R IN mutant
Experimental: (§6) The EC50 values were determined using a vector that carries the IN mutant in a single round infection assay. […] Error bars represent the standard deviations of independent experiments, n = 4, performed in triplicate.
as §2, §3

HIV-1 IN mutant P142H = assay: single-round infectivity assay, P142H IN mutant
Experimental: as §6
Single round infectivity measurements were determined as done previously.[38]
as §3

HIV-1 IN mutant N117A = assay: single-round infectivity assay, N117A IN mutant
Experimental: as §6, §2, §3

[1] = tested on: HIV-1 IN double mutant G140S/Q148H; assay: single-round infectivity assay, G140S/Q148H IN double mutant
Experimental: as §5, §2, §3

HIV-1 IN mutant N117H = assay: single-round infectivity assay, N117H IN mutant
Experimental: as §6, §2, §3

HIV-1 IN mutant S230R = assay: single-round infectivity assay, S230R IN mutant
Experimental: as §4, §2, §3

HIV-1 IN mutant Y143H = assay: single-round infectivity assay, Y143H IN mutant
Experimental: as §1, §2, §3

HIV-1 IN mutant S119R = assay: single-round infectivity assay, S119R IN mutant
Experimental: as §6, §2, §3

HIV-1 IN mutant P142A = assay: single-round infectivity assay, P142A IN mutant
Experimental: as §1, §2, §3

WT HIV-1 = assay: single-round infectivity assay, WT HIV-1 IN vector; conditions: new compounds
Experimental: as §5, §2, §3

[2] = fold change in EC50, IN mutant versus WT HIV-1

## Nc1c(C(=O)NCc2ccc(F)cc2F)c(=O)n(O)c2ncc(CCS(=O)(=O)CCN3CCOCC3)cc12 [6v, 4-Amino-N-(2,4-difluorobenzyl)-1-hydroxy-6-(2-((2-morpholinoethyl)sulfonyl)ethyl)-2-oxo-1,2-dihydro-1,8-naphthyridine-3-carboxamide]
HIV-1 IN mutant Y143C; EC50 compound / EC50 DTG
  ratio of the EC50s (our compound relative to DTG) against Y143C: 308.4
HIV-1 IN mutant Y143C; Human immunodeficiency virus 1, read-out: EC50 values Y143C, single round infection, n = 4
  EC50: 432 ± 75.3 nM
HIV-1 IN mutant Y143C; [2]
  FC Y143C: 1.6
HIV-1 IN mutant R231G; EC50 compound / EC50 DTG
  ratio of the EC50s (our compound relative to DTG) against R231G: 133.8
HIV-1 IN mutant R231G; Human immunodeficiency virus 1, read-out: EC50 values R231G
  EC50: 187 ± 17 nM
HIV-1 IN mutant R231G; [2]
  FC R231G: 0.7
HIV-1 IN mutant N155H; EC50 compound / EC50 DTG
  ratio of the EC50s (our compound relative to DTG) against N155H: 38.8
HIV-1 IN mutant N155H; Human immunodeficiency virus 1, read-out: EC50 values N155H
  EC50: 140 ± 4.9 nM
HIV-1 IN mutant N155H; [2]
  FC N155H: 0.5
HIV-1 IN mutant P142S; EC50 compound / EC50 DTG
  ratio of the EC50s (our compound relative to DTG) against P142S: 156.4
HIV-1 IN mutant P142S; Human immunodeficiency virus 1, read-out: EC50 values P142S
  EC50: 344 ± 26.9 nM
HIV-1 IN mutant R231K; EC50 compound / EC50 DTG
  ratio of the EC50s (our compound relative to DTG) against R231K: 97.9
HIV-1 IN mutant R231K; Human immunodeficiency virus 1, read-out: EC50 values R231K, single round infection, n = 4
  EC50: 411 ± 58 nM
HIV-1 IN mutant R231K; [2]
  FC R231K: 1.5
HIV-1 IN mutant Y143R; EC50 compound / EC50 DTG
  ratio of the EC50s (our compound relative to DTG) against Y143R: 25.3
HIV-1 IN mutant Y143R; Human immunodeficiency virus 1, read-out: EC50 values Y143R
  EC50: 109 ± 16.2 nM
HIV-1 IN mutant Y143R; [2]
  FC Y143R: 0.4
HIV-1 IN mutant G118R; EC50 compound / EC50 DTG
  ratio of the EC50s (our compound relative to DTG) against G118R: 88.3
HIV-1 IN mutant G118R; Human immunodeficiency virus 1, read-out: EC50 values G118R
  EC50: 1150 ± 270 nM
HIV-1 IN mutant G118R; [2]
  FC G118R: 4.3
HIV-1 IN mutant P142H; EC50 compound / EC50 DTG
  ratio of the EC50s (our compound relative to DTG) against P142H: 159.9
HIV-1 IN mutant P142H; Human immunodeficiency virus 1, read-out: EC50 values P142H
  EC50: 448 ± 35.8 nM
HIV-1 IN mutant N117A; EC50 compound / EC50 DTG
  ratio of the EC50s (our compound relative to DTG) against N117A: 319.0
HIV-1 IN mutant N117A; Human immunodeficiency virus 1, read-out: EC50 values N117A
  EC50: 160 nM
HIV-1 IN mutant N117A; [2]
  FC N117A: 0.6
[1]; EC50 compound / EC50 DTG
  ratio of the EC50s (our compound relative to DTG) against G140S/Q148H: 71.1
[1]; Human immunodeficiency virus 1, read-out: EC50 values G140S/Q148H
  EC50: 412 ± 120 nM
[1]; [2]
  FC G140S/Q148H: 1.5
HIV-1 IN mutant N117H; EC50 compound / EC50 DTG
  ratio of the EC50s (our compound relative to DTG) against N117H: 207.3
HIV-1 IN mutant N117H; Human immunodeficiency virus 1, read-out: EC50 values N117H
  EC50: 497 nM
HIV-1 IN mutant N117H; [2]
  FC N117H: 1.9
HIV-1 IN mutant S230R; EC50 compound / EC50 DTG
  ratio of the EC50s (our compound relative to DTG) against S230R: 134.0
HIV-1 IN mutant S230R; Human immunodeficiency virus 1, read-out: EC50 values S230R
  EC50: 616 ± 79.8 nM
HIV-1 IN mutant S230R; [2]
  FC S230R: 2.3
HIV-1 IN mutant Y143H; EC50 compound / EC50 DTG
  ratio of the EC50s (our compound relative to DTG) against Y143H: 172.0
HIV-1 IN mutant Y143H; Human immunodeficiency virus 1, read-out: EC50 values Y143H, single round infection, n = 4
  EC50: 378 ± 38.9 nM
HIV-1 IN mutant Y143H; [2]
  FC Y143H: 1.4
HIV-1 IN mutant S119R; EC50 compound / EC50 DTG
  ratio of the EC50s (our compound relative to DTG) against S119R: 213.0
HIV-1 IN mutant S119R; Human immunodeficiency virus 1, read-out: EC50 values S119R
  EC50: 490 ± 43.1 nM
HIV-1 IN mutant S119R; [2]
  FC S119R: 1.8
HIV-1 IN mutant P142A; EC50 compound / EC50 DTG
  ratio of the EC50s (our compound relative to DTG) against P142A: 145.9
HIV-1 IN mutant P142A; Human immunodeficiency virus 1, read-out: EC50 values P142A
  EC50: 365 ± 39.4 nM
WT HIV-1; Human immunodeficiency virus 1, read-out: EC50 values WT, vector carrying WT HIV-1 IN, single round infection, n = 4
  EC50: 268 ± 68.8 nM
WT HIV-1; read-out: EC50 values WT, vector carrying WT HIV-1 IN, single round infection, n = 4
  EC50: > 250 nM
